This note sets out measurements from patent US20160213635A1, “COMPOSITIONS USEFUL IN THE PREVENTION OR TREATMENT OF SKIN CANCER” (GIULIANI S.P.A., priority 2013, published 2016).

Assay [1] has as its system NHKs cells. The experiment in a line: Western Blot assessment of ability to repair DNA damage after pre-treatment with G01 and subsequent UV irradiation. The settings on record: after UVB irradiation 25 mJ/cm^2, 6 h. The assay is classed as cell-based, human. As for the experimental part: The NHKs cells were plated in the specific culture medium and maintained in culture for 24±2 h to allow adhesion to the plate. Then, the keratinocytes were treated for 24±2 h with the compound of the invention G01, at concentrations of 60 μM and 90 μM. Subsequently, the plates identified as +UVA, +G01/UVA, +UVB, and +G01/UVB were respectively exposed, in the irradiation medium, to doses of UVA of 10 J/cm^2 and UVB of 25 mJ/cm^2, while the control plates (Ctr) and those treated only with G01 were maintained in the dark and at room temperature for a period of time equal to the irradiation time. The irradiation medium was then replaced with the culture medium. Based on the preliminary results obtained on a broader time range, a post-treatment time of 6 h was selected, after which the plates were processed for Western Blot protein determination.
For each condition tested (treatment with G01 and/or UVA/UVB irradiation), the protein expression of the phosphorylated histone γH2AX, p53 and GADD45a (growth arrest and DNA damage response gene), known markers of DNA damage induced by UV radiation, was compared with the expression in the control cells (Ctr).
In general terms: Immunoblotting shows a protein as a band on a membrane.

The subject of assay [2] is NHKs cells. The experiment in a line: ELISA CPDs determination after pre-treatment with G01 and subsequent UVB irradiation. As to conditions: pre-treatment 90 μM; UVB 80 mJ/cm^2; 6 h and 24 h. The assay is classed as cell-based, human. As for the experimental part:
The NHKs cells were plated in the specific culture medium and maintained in culture for 24±2 h to allow adhesion to the plate. Then, the keratinocytes were treated for 24±2 h with the compound G01, in a concentration of 90 μM. Subsequently, the plates identified as +UVB and +G01/UVB were exposed, in the irradiation medium, to a UVB dose of 80 mJ/cm^2, while the control plates (Ctr) and those treated only with the compound under examination (G01) were maintained in the dark and at room temperature for a period of time equal to the irradiation time. The irradiation medium was then replaced with the culture medium. Based on the preliminary results obtained on a broader time range, post-treatment times of 6 h and 24 h were selected, after which the plates were processed according to the procedure described in the work instruction specific for the DNA extraction. The determination of the pyrimidine cyclobutane dimers, CPDs, was performed using a specific ELISA kit following the procedure described in the user manual.
On the technique in general: ELISA stands for enzyme-linked immunosorbent assay.

Assay [3] relates to primary cultures of human keratinocytes, NHKs. The assay is described as follows: Cell viability (incorporation of NR) after UV irradiation and subsequent treatment with G01. In kind it is cell-based. The settings on record: post-treatment; UVA 10 J/cm^2, UVB 25 mJ/cm^2; particularly 48 h after irradiation; highest concentration tested 90 μM. As to the method:
The cells were plated in the specific culture medium and maintained in culture for 24±2 h to allow adhesion to the plate. The cells in the plates identified as +UVA and +UVB were respectively exposed, in the irradiation medium, to doses of UVA of 10 J/cm^2 and UVB of 25 mJ/cm^2, while the control plate (Ctr) was maintained in the dark and at room temperature for a period of time equal to the irradiation time. The irradiation medium was then replaced with the culture medium, containing the compound G01 in concentrations selected based on the cell viability results obtained after treatment with the same compound (see above). The cell viability was measured (incorporation of NR) at a time of 24±2 h and 48±2 h after the irradiation, in the absence and the presence of UVA/UVB irradiation and/or treatment with the compound of the invention G01. The cell viability values for each condition tested were compared with the value obtained from the control and plotted on a graph to highlight any differences between the various experimental conditions.

Assay [4] relates to NHKs cells. The experiment in a line: Flow cytometric (annexin V) assessment of apoptosis induced by UV irradiation and subsequent treatment with G01. The assay is classed as cell-based, human. The settings on record: post-treatment 90 μM; UVA 25 J/cm^2, UVB 80 mJ/cm^2; 24 h. As for the experimental part:
The NHKs cells were plated in the specific culture medium and maintained in culture for 24±2 h to allow adhesion to the plate. Each experimental condition was plated in duplicate. Subsequently, the plates identified as +UVA, +G01/UVA, +UVB, and +G01/UVB were respectively exposed, in the irradiation medium, to doses of UVA of 25 J/cm^2 and UVB of 80 mJ/cm^2, while the control plates (Ctr) and those treated only with the compound under examination (G01) were maintained in the dark and at room temperature for a period of time equal to the irradiation time. The irradiation medium was then replaced with the culture medium containing the compound G01 in a concentration of 90 μM. Based on the preliminary results obtained on a broader time range, a post-treatment time of 24 h was selected, after which the plates were processed according to the procedure given in the user manual of the specific kit for annexin V flow cytometric analysis. The positivity for annexin V in each condition tested (treatment with the compound of the invention under examination and/or UVA/UVBirradiation) was compared with the positivity in the control cells.
In general terms: A flow cytometer gives signals particle by particle.

Assay [5] deals with NHKs cells. The experiment in a line: ELISA CPDs determination after UVB irradiation and subsequent treatment with G01. In kind it is cell-based, human. As to conditions: post-treatment 90 μM; UVB 25 mJ/cm^2; 6 h and 24 h. As to the method:
The NHKs cells were plated in the specific culture medium and maintained in culture for 24±2 h to allow adhesion to the plate. Then, the plates identified as +UVB and +G01/UVB were respectively exposed, in the irradiation medium, to a UVB dose of 25 mJ/cm^2, while the control plates (Ctr) and those treated only with the compound under examination (G01) were maintained in the dark and at room temperature for a period of time equal to the irradiation time. The irradiation medium was then replaced with the culture medium containing the compound G01, in a concentration of 90 μM. Based on the preliminary results obtained on a broader time range, post-treatment times of 6 h and 24 h were selected, after which the plates were processed according to the procedure described in the work instruction specific for the DNA extraction. The CPDs determination was performed using a specific ELISA kit following the procedure described in the user manual.

Assay [6] relates to NHKs cells. The assay is described as follows: Western Blot time course of p53, phospho-p53 and GADD45a after UVB irradiation and subsequent treatment with G01. The assay is classed as cell-based, human. The settings on record: post-treatment 90 μM. As to the method: The NHKs cells were plated in the specific culture medium and maintained in culture for 24±2 h to allow adhesion to the plate. Subsequently, the plates identified as +UVB and +G01/UVB post were exposed, in the irradiation medium, to a UVB dose of 25. mJ/cm^2. The irradiation medium was then replaced with the culture medium containing the compound of the invention G01, in a concentration of 90 μM. Post-treatment times of 1-3-6-24 h were selected, after which the plates were processed for Western Blot protein determination. The protein expression of p53, phospho-p53, and GADD45a after UVB irradiation and post-treatment with the compound of the invention G01 was compared with the expression in the control cells (Ctr).

Where [7] appears, read: UVB 25 mJ/cm^2, shorter times of 1-3-6-24 h.

As for `C/C=C/C=C/C=C/C(=O)O` [G01, 2,4,6-trans-octatrienoic acid], the “fraction of phosphorylated histone γH2AX” value in the assay with NHKs cells [1] is listed as “reduced fraction”. In addition, the “CPDs adducts (pyrimidine cyclobutane dimers)” value in the assay with NHKs cells [2] is reported as “promote the removal of CPDs adducts”. Moreover, the “cell viability after UVA/UVB irradiation” value in assay [3] is reported as “significant protective action”. Besides, the “apoptosis (positivity for annexin V) induced by UVA and UVB” value in the assay on NHKs cells [4] is “reduce the apoptosis”. Besides, the “CPDs products (pyrimidine cyclobutane dimers)” value with NHKs cells [5] is given as “promote the removal of CPDs products”. Further, the “expression of the markers of DNA damage” value with NHKs cells [6] (24 h after UVB irradiation 25 mJ/cm^2) was “decrease in the expression”. Besides, in the assay with NHKs cells [6] (setting [7]), the “levels of GADD45a” value is on record as “acceleration of the increase”, the “levels of p53” value is listed as “acceleration of the increase” and the “levels of phospho-p53” value is reported as “acceleration of the increase”.
